Source: patent publication US7833977B2, “Use of L-Carnitine as stabilizing agent of proteins” (Sigma-Tau Industrie Farmaceutiche Riunite S.p.A., priority 2000, dated 2010)
“Also recorded” adds a separate entry of the source.

What was measured:
α-crystallin [1] = test: Tryptophan fluorescence of α-crystallin fractions from treated lenses; parameters: species or system rat; conditions: excitation 295 nm, emission 330 nm
From the text: The loss of-protein tryptophan fluorescence, an indicator of tryptophan oxidation, seems to be a marker of crystallin integrity. We therefore measured-tryptophan fluorescence in lens crystallin (Perkin-Elmer 650-40 spectrophotometer) according to a previously described method (Jones, R. H. V., and Hothersall, J. S. (1993), Exp Eye Res 57, 783-790). The excitation wavelength was set to 295 nm, and the fluorescence emission was detected at 330 nm.

α-crystallin [2] = test: Chaperone-like activity of α-crystallin from treated lenses (heat-induced βL-crystallin aggregation, light scattering at 360 nm); assay type: biochemical, rat; conditions: 100 or 200 μg α-crystallin + 200 μg βL-crystallin; 55° C. or 58° C.
Procedure: The following experiments were performed essentially as described elsewhere (Horwitz, J. (1992) Proc Natl Acad Sci USA. 89, 10449-10453). The chaperone-like activity of α-crystallin from control and H2O2±L-carnitine treated lenses was determined by heat denaturation studies. The extent to which the unmodified or modified α-crystallin preparation protected βL-crystallin (used as the target protein) from heat-induced denaturation and aggregation was assessed as follows: 100 μg or 200 μg of α-crystallin were added to 200 μg of βL-crystallin in a 1.5-ml cuvette and made up to a final volume of 1 ml with 50 mM phosphate buffer, pH 7.0. The cuvette was placed in a temperature-regulated cell holder attached to a UV spectrophotometer. Light scattering due to protein denaturation and aggregation was monitored at. 360 nm absorbance for 3,000 s at 55° C. or for 1,800 s at 58° C.
The chaperone properties of the purified water-soluble α-crystallin were determined by crystallin (target protein) aggregation assay. Characteristically, βL-crystallin aggregates at elevated temperatures. The addition of α-crystallin either prevents or decreases the heat-induced aggregation of βL-crystallin, which is measured by light scattering at 360 nm. Since the ratio of α to β determines the degree of protection against heat-induced aggregation, we used 100 μg or 200 μg of α-crystallin and 200 μg of βL-crystallin. […]

rat lenses = test: Rat lens organ culture exposed to H2O2 with or without L-carnitine; assay type: cell-based, Sprague-Dawley rats; conditions: after 24 h incubation with H2O2 ± L-carnitine
Procedure: Four-month-old Sprague-Dawley rats were anesthesized with 5 mg/kg xylazine and 65 mg/kg ketamine, and decapitated. Immediately after, eyes were enucleated, extracted and placed in 2 ml of modified TC-199 medium. Lens integrity was assessed by measuring protein leached into the medium after 30-60 min of culture; damaged lenses were discarded. One lens of each pair was placed in culture medium with no H2O2 and used as a control. […] The controlateral lens of each pair was placed in medium and, after equilibration under 5% CO2 at 37° C., was exposed to 500 μM H2O2 in the absence or presence of 300 μM L-carnitine. After 24 h of incubation, morphological characteristics and changes were recorded, and the lenses were photographed. The incubated lenses were rinsed with saline solution, blotted on filter paper, weighed, and then immediately processed for biochemical analysis. To determine lactate dehydrogenase (LDH) leakage, lenses were incubated individually in each different medium, and the medium was harvested daily and saved for LDH analysis.
Decapsulated lenses were homogenized with disposable pestles and then sonicated in extract buffer (20 mM HEPES, 0.2 mM EDTA, 0.5 mM dithiothreitol, 450 mM NaCl, 25% glycerol, […] leupeptin, 0.5 μg/ml protinin, 0.5 mM phenylmethanesulfonyl fluoride) on ice. Aliquots of the homogenate from each of the incubated lenses were removed for GSH and L-carnitine analysis. The remainder was centrifuged for 25 min at 20,000×g to separate the supernatant from the pellet. The pellet was washed with 1.0 ml buffer and dried under nitrogen. This fraction was designated “water-insoluble fraction”. The supernatant fraction was dialyzed twice against 3 ml of 0.025 mol/l phosphate buffer, pH 7.4 for 48 h and lyophilized. This fraction was designated “water-soluble” fraction. The water-soluble and water-insoluble fractions were delipidated with 3.0 ml chloroform:methanol (2:1) for 16 h under shaking followed by centrifugation at 2,000 g for 5 min.
The water-insoluble proteins were suspended in 0.2 M N-ethylmorpholine acetate (pH 8.1). An aliquot (10%) was used to quantitate the amount of total protein. Samples were digested by the sequential addition of proteolytic enzymes (collagenase, pronase, aminopeptidase and carboxypeptidase A, carboxypeptidase B and carboxypeptidase y), directly to the reaction mixture at 37° C. in the presence of 0.02% sodium azide. After enzymatic digestion, the free N-(γ-glutamyl)lysine isopeptide cross-link was resolved by HPLC and quantitated by amino acid analysis (Hohl, D., et al (1991), J Biol Chem. 266, 6626-6636). In a related set of experiments, the isopeptide content of lenses was determined without prior extraction. […]

α-crystallin [3] = test: GFAP gel forming assay (falling ball viscosimetry) with α-crystallin from treated lenses; assay type: biochemical, rat; conditions: α-crystallin from H2O2 ± L-carnitine-treated lenses; 37° C., 1 h
From the text: The sedimentation assay devised by Nicholl and Quinlan (Nicholl, I. D., and Quinlan, R. A. (1994), EMBO J 13, 945-953) was used to assess α-crystallin-induced inhibition of intermediate filament assembly. Purified porcine glial fibrillary acidic: protein (GFAP) was used for these studies; it was purified from porcine spinal cord by axonal flotation as described previously (Pemg, M. D., et al (1999), J Cell Sci. 112, 2099-2112, MacLean-Fletcher, S., and Pollard, T. D. (1980), Biochem Biophys Res Commun 96, 18-27). The gel formation assay was based on a method used to monitor actin binding protein activity by falling ball viscometry (Pemg, M. D., et al (1999), J Cell Sci. 112, 2099-2112). α-Crystallins were mixed with GFAP in 8 M urea, 20 mM Tris-HCI, pH 8.0, 5 mM EDTA, 25 mM 2-mercaptoethanol and then stepwise dialyzed in 10 mM Tris-HCI, pH 8.0, 25 mM 2-mercaptoethanol. Assembly of the GFAP intermediate filaments, in the presence or absence of α-crystallin, was induced by the addition of a 20-fold concentrated buffer to give a final concentration of 100 mM imidazole-HCI, pH 6.8, 0.5 mM DTT. A 100-μl aliquot of sample was loaded into a glass tube and used for the viscosity assay. The tube was then immersed in a 37° C. water bath for 1 h before the gel formation assay. A ball was then placed into the tube, and the ability of the solution to support the ball was monitored. […]

lens crystallins = conditions: Swamy-Mruthinti and Carter 1999; cited from earlier work

| Compound | Loss of tryptophan fluorescence in α-crystallin (α-crystallin [1]) | Capacity of α-crystallin to prevent heat-induced aggregation of βL-crystallin (α-crystallin [2]) | Lens clarity / opacification (rat lenses) | Lens morphology by optical and electron microscopy (rat lenses) | Inhibition of GFAP gel formation by α-crystallin (α-crystallin [3]) | Effect on in vitro glycation of lens crystallins (lens crystallins) |
| --- | --- | --- | --- | --- | --- | --- |
| OO [H2O2] | 2.7 fold | significant decrease | became opaque | Ballooning, liquefaction and various degrees of fiber swelling | did not affect gel formation |  |
| C[N+](C)(C)C[C@H](O)CC(=O)[O-] [L-carnitine] | restored the basal value | prevented this negative effect | remained clear; also recorded: remained transparent | cell shape was unaltered and that fiber cells were intact | blocked GFAP gel formation to the same extent as α-crystallin from control lenses | ineffective |
| CC(=O)O[C@H](CC(=O)[O-])C[N+](C)(C)C [acetyl L-carnitine] |  |  |  |  |  | decreased crystallin glycation |
| CC(=O)Oc1ccccc1C(=O)O [acetyl salicylic acid] |  |  |  |  |  | decreased crystallin glycation |
